From paper PMC8518382, “Identification of a Bromodomain‐like Region in 15‐Lipoxygenase‐1 Explains Its Nuclear Localization” (Angewandte Chemie (International Ed. in English), 2021)
Where “and” joins values, the source holds several entries; their conditions need not be identical. Identical values can stand only once.

Key:
[1] = target: T1, 15-LOX-2 (Homo sapiens, UniProt O15296); test: ABP-based ELISA assay with A549 cell lysate, 15-LOX-2; format: biochemical
T1 construct: endogenous in cells; host or cells: A549 cell lysate
T1 sequence (O15296 1-676): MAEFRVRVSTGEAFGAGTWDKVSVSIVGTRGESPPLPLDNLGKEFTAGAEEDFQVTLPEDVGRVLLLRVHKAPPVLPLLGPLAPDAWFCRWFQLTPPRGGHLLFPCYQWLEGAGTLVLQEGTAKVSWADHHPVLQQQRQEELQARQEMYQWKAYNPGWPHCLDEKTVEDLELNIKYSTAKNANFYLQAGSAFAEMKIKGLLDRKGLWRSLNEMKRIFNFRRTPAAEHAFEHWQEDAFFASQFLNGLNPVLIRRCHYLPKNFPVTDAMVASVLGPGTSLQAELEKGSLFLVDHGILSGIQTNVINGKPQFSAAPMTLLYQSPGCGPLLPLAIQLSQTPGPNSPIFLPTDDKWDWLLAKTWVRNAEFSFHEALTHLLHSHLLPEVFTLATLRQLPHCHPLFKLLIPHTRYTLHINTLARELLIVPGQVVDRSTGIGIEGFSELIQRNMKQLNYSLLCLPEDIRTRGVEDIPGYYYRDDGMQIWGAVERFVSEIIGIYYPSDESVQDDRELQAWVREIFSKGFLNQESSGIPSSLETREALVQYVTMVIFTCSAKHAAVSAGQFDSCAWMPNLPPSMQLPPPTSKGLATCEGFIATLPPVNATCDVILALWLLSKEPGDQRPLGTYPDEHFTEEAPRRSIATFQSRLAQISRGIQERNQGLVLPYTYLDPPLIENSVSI
Protocol: (§1) A549 cell lysate was treated with a serial dilution of the respective inhibitor. Subsequently, samples were labeled by treatment with 1 μM of Labelox B for 1 min. […] Data are mean±s.d., n≥3 independent experiments. […]
(§2) 1.6. Immunoblotting Analysis […]
(§3) 1.7. ABPP-based LOX inhibitor specificity validation
(§4) A549 cells were lysed by RIPA buffer supplemented with 1x PIC. After sonication and centrifugation, the supernatant was collected, and the protein concentration was determined by a Pierce BCA Protein Assay Kit (Thermo Fisher Scientific, USA). The lysates were then diluted with PBS to 300 ng/µl and stored in -20°C. To label endogenous LOXs with Labelox B under the competition condition, 180 µl diluted lysates were incubated with 200 µl different LOX inhibitor solution (in PBS) with desired concentrations for 18 min to inhibit LOXs activity. Later, 20 µl of a 20 µM Labelox B (in PBS) was added and incubated shortly for 2 min, followed by adding 50 µl of a 0.5 M EDTA to stop the labeling reaction. The reaction mixture was 450 µl in total. Inhibitors and Labelox B were absent in positive and […]
(1 picture or pasted object on this page, not shown here) […]
(§5) negative control, respectively. To detect the competition labeling of Labelox B among different LOXs, a high-binding 96-well plate (Greiner, #M4561) was coated with 5-LOX (#ab169755, Abcam), 12-LOX […]
(1:500 dilution in PBS) for overnight at 4°C. After washing triply with 0.05%PBST, the plate was blocked with 2% (w/v) BSA in PBST. Subsequently, 100 µl of each reaction mixture was added to the LOX-antibody-coated wells. There are four LOX antibodies used for coating. Therefore, in total, 400 µl mixture is needed for each reaction. After one hour of incubation, LOXs were pulled down by antibodies accordingly. Next, 100 µl of HRP-conjugated streptavidin (1:2000 dilution in PBS, Thermo Fisher Scientific, USA) was added to each well to detect the D04 labeled LOXs among precipitated LOXs. […] The absorbance at […]

[2] = target: T2, 5-LOX (Homo sapiens, UniProt P09917); test: ABP-based ELISA assay with A549 cell lysate, 5-LOX; format: biochemical
T2 construct: the endogenous LOXs were captured on an anti‐LOX antibody precoated 96‐well plate; endogenous in cells; host or cells: A549 cell lysate
T2 sequence (P09917 1-674): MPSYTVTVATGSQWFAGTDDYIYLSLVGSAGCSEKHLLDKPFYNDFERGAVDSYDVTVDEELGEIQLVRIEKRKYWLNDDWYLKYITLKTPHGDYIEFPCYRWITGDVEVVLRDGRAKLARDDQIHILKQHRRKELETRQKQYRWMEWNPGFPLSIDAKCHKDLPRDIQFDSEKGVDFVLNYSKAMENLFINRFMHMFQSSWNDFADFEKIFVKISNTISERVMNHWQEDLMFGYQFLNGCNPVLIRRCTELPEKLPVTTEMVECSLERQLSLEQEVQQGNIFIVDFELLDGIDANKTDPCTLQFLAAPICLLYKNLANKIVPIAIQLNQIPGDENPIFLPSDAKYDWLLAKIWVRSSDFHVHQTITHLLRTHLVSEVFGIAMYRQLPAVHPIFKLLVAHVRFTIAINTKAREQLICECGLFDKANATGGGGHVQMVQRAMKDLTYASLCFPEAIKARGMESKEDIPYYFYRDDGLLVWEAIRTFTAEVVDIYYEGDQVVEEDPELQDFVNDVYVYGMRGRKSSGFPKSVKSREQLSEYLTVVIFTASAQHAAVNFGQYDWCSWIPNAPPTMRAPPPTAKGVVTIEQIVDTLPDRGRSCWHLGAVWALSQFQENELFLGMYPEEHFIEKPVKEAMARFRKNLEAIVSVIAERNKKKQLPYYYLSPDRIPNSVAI
Protocol: as §1, §2, §3, §4, §5
(1:500 dilution in PBS) for overnight at 4°C. After washing triply with 0.05%PBST, the plate was blocked with 2% (w/v) BSA in PBST. Subsequently, 100 µl of each reaction mixture was added to the LOX-antibody-coated wells. There are four LOX antibodies used for coating. Therefore, in total, 400 µl mixture is needed for each reaction. After one hour of incubation, LOXs were pulled down by antibodies accordingly. Next, 100 µl of HRP-conjugated streptavidin (1:2000 dilution in PBS, Thermo Fisher Scientific, USA) was added to each well to detect the D04 labeled LOXs among precipitated LOXs. After washing with PBST, 100 µl of mixed HRP substrate reagent (R&D Systems, Minneapolis, USA) was added, and the colorizing reaction was stopped by adding 100 µl of 1M sulfuric acid. The absorbance at […]

| SMILES | HillSlope Value [1] | IC50 ([1]; 1 μM Labelox B) | HillSlope Value [2] | IC50 ([2]; 1 μM Labelox B) |
| --- | --- | --- | --- | --- |
| c1ccc2c(c1)SCc1c-2[nH]c2ccccc12 [PD146176] | -0.88 | > 100 µM and 123 µM | -0.99 | ~17 µM and 14.8 µM |
| O=c1cc(-c2ccccc2)oc2cc(O)c(O)c(O)c12 [Baicalein] | -0.34 | – | -0.26 | – |
